Reference: US20010049372A1, “Antiviral nucleoside analogues” (BioChem Pharma Inc., priority 1998, published 2001)
Where two headings read alike, the source gives them in different places.

Tests used:
[1] = Pharmacokinetic study in male and female rats (single dose iv or po); assay type: in vivo, rat; conditions: for Cmax / bioavailability / Tmax: plasma; for Cmax: read-out: Cmax; for Tmax: read-out: Tmax (converted)
Description: Compound A(−), DAPD, and DXG were administrated as a single dose, either intravenously through the jugular vein at 10 mg/kg or orally at 20, 125, 500, 1000 or 2000 mg/kg. All rats were fasted for 12 hours prior to po dosing treatment. The vehicle used for both iv and po administrations was 0.1% carboxymethylcellulose and 0.1% Tween 80 in distilled water, acidified to pH 3.15 with 1N HCl. Blood samples were taken from rats at the times shown in the schedule below for all oral dosing. From a total of 10 rats for each administration, seven time points were taken for the intravenous through the jugular vein dosing (2, 5, 15, 30, 60, 120 and 240 min) and for the oral dosing (5-360 min) at 20 mg/kg, whereas two additional time points at 480 and 1440 min were taken for the oral doses of 125-2000 mg/kg. As a result, each time point was in quadruplicate, except for the 1440 minute time point when blood samples were taken through the jugular vein from all the rats prior to being euthanized.
Blood samples (1 ml) were collected from the rat tails into a vacutainer containing EDTA (3 ml) for both iv and po administrations. Plasma samples were prepared by centrifugation at 2000×g for 15 minutes at 4° C.
Plasma samples (diluted to 1 ml with water) were loaded onto the Abselut Nexus sorbent (#1210-3100) and drawn through under low vacuum (approximately 5′′ Hg). One milliliter of deionized water was added to the sorbent and drawn through under vacuum. The extraction column was dried for 1 minute using a high vacuum (>10′′ Hg). One milliliter of methanol was added to the Abselut Nexus column and the eluent was collected at 1-2 ml/min. The eluent was evaporated to dryness using a Speed Vac, and the samples were reconstituted in 120 μl H2O; 100 μl was used for injection.

K65R = experiment: Recombinant drug resistant HIV-1 variants (RT activity); assay type: cell-based; conditions: Human immunodeficiency virus 1
Description: ANTIVIRAL ASSAYS. The anti-HIV-1 activity of the compound A (−) were assessed by employing HIV-1IIIB in a variety of cell types as previously described (Gu et al., 1992, 1994, 1999; Rando et al., 1995; Salomon et al., 1994). Briefly, cells were incubated with virus at a multiplicity of infection (MOI) of 0.005 for T cell assays and an MOI of 0.5 for monocytic cell assays for 3 hrs. Unbound virus was then removed by washing the cells, followed by seeding the cells into a 96-well plate. The infected cells were cultured in the presence of a serial concentrations of the test compound for 5-7 days. The anti-HIV-1 efficacy was determined by testing for HIV-1 RT activity or p24 level in the cell culture supernatants. All assays were performed in duplicate. Zidovudine and/or lamivudine were used as controls in each experiment.
Recombinant HIV-1 variants were prepared by introducing the designed mutations into HXB2-D by site-directed mutagenesis as described (Gu et al. 1992, 1994). The virus stocks were prepared by transfecting MT-4 cells with infectious viral DNA constructs. Antiviral activity of the compound A (−) was evaluated as described in example 10.

[2] = Cellular toxicity by WST-1 staining; assay type: cell-based; conditions: human, CBMCs
Description: The cellular toxicity of the compounds were assessed on various cells using [^3H]-thymidine uptake. Various cells, including Molt-4, HT1080, DU-145, HepG-2 and HSF, were plated at a concentration of 1-2×10^3 cells per well (96 well plates). After a 24 hr incubation period, 10-fold serial diluted compounds (b 10^−4 M to 10^−10 M) were added to the culture medium and the cells were further incubated for 72 hrs. [^3H]-thymidine was added during the final 18 hr incubation period. After incubation with the [^3H]-thymidine, the cells were washed once with PBS, treated with trypsin if the cells were adherent, and then resuspended in water (hypotonic lysing of cells). The cellular extract was applied directly to a Tomtec Harvester 96. Using this instrument the extracted DNA is adsorbed onto filters, washed and the incorporated [^3H]-thymidine is then counted. The 50% cytotoxic concentration (CC50) was determined by comparing the radioactive counts per minute of the samples in the presence of the compounds against the control. The cellular toxicity of the compounds was also tested by WST-1 staining through assessing proliferation of MT-2, H9, Jurkat, U937, and CBMCs. The established cell lines were cultured in RPMI medium in 96-well plates at a density of 5×10^4 cells/well while CBMCs were plated at a concentration of 0.5×10^6/well. A 10-fold serial diluted (10^−4-10^−7 M) compound was added at day zero. At day 4, the cells were passaged by changing half medium containing appropriately diluted compound. The cell activities were assessed at day 7 using the WST-1 reagent (Boehringer Mannheim) following the protocol provided by the supplier.
In the WST-1 staining experiments, cell lines were cultured in RPMI medium in 96-well plates at a density of 5×10^4 cells/well. CBMCs were plated at a concentration of 0.5×10^6/well. Compounds (10^−4-10^−7 M) were added at day zero. Cell viability was assessed on day 7 using the WST-1 reagent (Boehringer Mannheim) following the protocol provided by the supplier.

DU-145 = experiment: Cellular toxicity by [3H]-thymidine uptake; assay type: cell-based; conditions: 72 hrs
Summary of the method: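 Cells plated at 1-2×10^3/well, pre-incubated 24 h, then exposed 72 h to 10-fold serial compound dilutions (10^−4 M to 10^−10 M). [3H]-thymidine was added for the final 18 h and DNA incorporation counted after hypotonic lysis and harvesting. CC50 derived from cpm relative to untreated controls.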

## Nc1nc(NC2CC2)c2ncn([C@H]3CO[C@@H](CO)O3)c2n1 [Compound A (-), (−)-(2R,4R)-2-hydroxymethyl-4-(2′-amino-6′-cyclopropylamino-purine-9′-yl)-1,3-dioxolane]
[1]; female rat, iv 10 mg/kg
  AUG: 328 µg·min/mL
  T-half elimination: 36.9 min
  Cmax: 22900 ng/mL
[1]; female rat, po 20 mg/kg
  AUG: 602 µg·min/mL
  T-half elimination: 57.1 min
  bioavailability: 92%
  Cmax: 5500 ng/mL
  Tmax: 22.8 min
[1]; male rat, iv 10 mg/kg
  AUG: 304 µg·min/mL
  T-half elimination: 34.2 min
  Cmax: 19200 ng/mL
[1]; male rat, po 20 mg/kg
  AUG: 600 µg·min/mL
  T-half elimination: 72.5 min
  bioavailability: 99%
  Cmax: 4600 ng/mL
  Tmax: 23.4 min
K65R
  EC50: 1.03 µM
[2]; Table 14, day 7, read-out: CC50 (μM) WST-1 CBMC
  CC50 at 7 days: > 100 µM

## Nc1ccn([C@@H]2CS[C@H](CO)O2)c(=O)n1 [Lamivudine, lamivudine]
DU-145; Table 4
  CC50 (μM) [^3H-]TTP incorporation in: U-145: >500/100
K65R
  EC50: 4.31 µM

## Cc1cn([C@H]2C[C@H](N=[N+]=[N-])[C@@H](CO)O2)c(=O)[nH]c1=O [Zidovudine, zidovudine]
DU-145; Table 14, read-out: CC50 (μM) [^3H]TTP incorporation in: U145
  CC50: > 10 µM
[2]; Table 4, day 7, read-out: CC50 (μM) WST-1 CBMC
  CC50 at 7 days: 74 µM
